For series [1], the system named is HepG2. Briefly: Growth inhibition of human HepG2 cells at 10 uM after 24 hrs by MTS assay relative to control. The series is classed as functional. The note with it: HepG2, 24 h, read-out: GI. A general note: Tetrazolium assays rely on reduction of a dye to a coloured formazan, in cell work by metabolically active cells.
The subject of series [2] is MCF7. The series is described as follows: Growth inhibition of human MCF7 cells at 10 uM after 24 hrs by MTS assay relative to control. Format: functional. The note with it: MCF7, 24 h, read-out: GI.
The test system of series [3] is MCF7. Briefly: Cytotoxicity against human MCF7 cells assessed as reduction in cell viability after 24 hrs by MTS assay. The series is classed as functional, cell-based. To be noted: MCF7, 24 h.
Series [4] relates to SW480. Briefly: Growth inhibition of human SW480 cells at 10 uM after 24 hrs by MTS assay relative to control. The series is classed as functional. The note with it: SW480, 24 h, read-out: GI.
Series [5] is filed under the species Homo sapiens. The series is described as follows: Inhibition of LPS-induced NF-kappaB transcription (unknown origin) expressed in human SW480 cells at 10 uM by luciferase reporter gene assay. Format: cell-based.
The test system of series [6] is HepG2. The series is described as follows: Cytotoxicity against human HepG2 cells assessed as reduction in cell viability after 24 hrs by MTS assay. Format: functional, cell-based. To be noted: HepG2, 24 h.
In series [7] the target is T1, Tyrosine-protein phosphatase non-receptor type 1 (Homo sapiens) (UniProt P18031).
T1 sequence (whole entry): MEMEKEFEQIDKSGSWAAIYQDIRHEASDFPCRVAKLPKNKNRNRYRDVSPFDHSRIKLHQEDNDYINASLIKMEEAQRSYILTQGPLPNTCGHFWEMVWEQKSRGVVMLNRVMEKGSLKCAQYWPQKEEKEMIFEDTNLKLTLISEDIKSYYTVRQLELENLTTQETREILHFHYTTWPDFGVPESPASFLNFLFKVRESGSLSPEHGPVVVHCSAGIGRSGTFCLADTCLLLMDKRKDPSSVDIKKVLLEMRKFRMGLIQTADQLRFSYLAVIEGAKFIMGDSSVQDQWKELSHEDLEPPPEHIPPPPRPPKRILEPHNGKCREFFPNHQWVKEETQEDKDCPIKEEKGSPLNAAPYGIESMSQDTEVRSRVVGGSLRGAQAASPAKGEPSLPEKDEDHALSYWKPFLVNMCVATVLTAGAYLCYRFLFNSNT
Briefly: Inhibition of recombinant human PTP1B using p-nitrophenyl phosphate as substrate at 10 uM after 30 mins relative to control.

Series [8] concerns RAW264.7. The series is described as follows: Antiinflammatory activity in mouse RAW264.7 cells assessed as inhibition of LPS-induced NO production at 10 uM after 24 hrs by Griess reagent based assay relative to control. The series is classed as functional. To be noted: RAW264.7, 24 h. A general note: Griess reagent forms a coloured azo dye with nitrite.
For series [9], the system named is SW480. Briefly: Cytotoxicity against human SW480 cells assessed as reduction in cell viability after 24 hrs by MTS assay. Format: functional, cell-based. To be noted: SW480, 24 h.
The target of series [10] is T2, Tyrosine-protein phosphatase non-receptor type 1 (Homo sapiens, UniProt P18031).
T2 sequence (P18031 whole entry): T1 sequence (whole entry)
Briefly: Inhibition of recombinant human PTP1B using p-nitrophenyl phosphate as substrate after 30 mins.

A short description of series [11]: (§1) Growth inhibition of human HEK293T cells at 10 uM after 24 hrs by MTS assay relative to control. The series is classed as cell-based, HEK-293T. The note with it: HEK293T cells, read-out: GI.
A further series concerns HEK-293T. The description is as §1. The series is classed as cell-based. To be noted: hek-293t, 24 h, 10 µM.
For series [12], the target named is Mushroom tyrosinase (Agaricus bisporus) (UniProt O42713+Q00024+C7FF04+C7FF05). The series is described as follows: Inhibition of mushroom tyrosinase at 10 uM using L-tyrosine as substrate incubated for 15 mins followed by substrate addition relative to control.
A short description of series [13]: (§2) Growth inhibition of human LO2 cells at 10 uM after 24 hrs by MTS assay relative to control. The note with it: LO2 cells, read-out: GI. Format: cell-based, L02.
A further series deals with L02. Described as §2. To be noted: l02, 24 h, 10 µM. Format: cell-based.
Series [14] has as its system RAW264.7. The series is described as follows: Antiinflammatory activity in mouse RAW264.7 cells assessed as inhibition of LPS-induced NO production after 24 hrs by Griess reagent based assay. The series is classed as functional, cell-based. To be noted: RAW264.7, 24 h.
A short description of series [15]: Inhibition of LPS-induced NF-kappaB transcription (unknown origin) expressed in human SW480 cells by luciferase reporter gene assay. The series is classed as cell-based. On the technique in general: Reporter assays use an easily measured gene product as a stand-in for the process of interest.
The target in a further series is Mushroom tyrosinase (Agaricus bisporus, UniProt O42713+Q00024+C7FF04+C7FF05). The series is described as follows: Inhibition of mushroom tyrosinase using L-tyrosine as substrate incubated for 15 mins followed by substrate addition.
The subject of series [16] is RAW264.7. Briefly: Antiinflammatory activity in mouse RAW264.7 cells assessed as inhibition of LPS-induced NO production at 20 uM after 24 hrs by Griess reagent based assay relative to control. The series is classed as functional. To be noted: RAW264.7, 24 h.
The species entered for series [17] is Homo sapiens. The series is described as follows: Inhibition of LPS-induced NF-kappaB transcription (unknown origin) expressed in human SW480 cells at 20 uM by luciferase reporter gene assay. The series is classed as cell-based.

Where a SMILES comes first, the peptide text is derived from it. The star is where a group is joined. Cbz = O=C(OCc1ccccc1)*

Usually IC50 stands for the concentration at which inhibition is half-maximal. For `CC(C)=CCc1c(O)cc2occ(-c3cc(O)c4c(c3)C=CC(C)(C)O4)c(=O)c2c1O`, the values for the inhibition of growth at 10 µM with HepG2 [1], with MCF7 [2] and with SW480 [4] were 89%, 92% and 82%, respectively. Also, the IC50 with MCF7 [3] turned out to be 7.27 µM; in the series with HepG2 [6] it was 3.54 µM; in the series with SW480 [9] it was 7.87 µM; in series [10] it was 1.48 µM. Besides, the inhibition in the series filed under Homo sapiens [5] came to 14%; in series [7] it was 92%; in series [12] it was 1%. For the same compound, the inhibition at 10 µM in the series on RAW264.7 [8] was 0%. Also, the inhibition at 24 h, 10 µM in series [11] is 11%; in series [13], 5%. For the same compound, the Activity entry in the series on HEK-293T and in the series with L02 was “Non-Toxic” throughout.

On to `COc1c(/C=C/C(=O)c2ccc(O)c(O)c2)ccc(O)c1CC=C(C)C`, for which the values for the IC50 (in the series on RAW264.7 [14]; in series [15]) were 9.35 µM and 2.44 µM, respectively. The inhibition of growth at 10 µM came out at 5% with HepG2 [1], 21% in the series with MCF7 [2] and 21% in the series with SW480 [4]. The figures for the inhibition (in the series filed under Homo sapiens [5]; in [7]; in series [12]) were 80%, 75% and 11%, respectively. Also, the inhibition at 10 µM in the series with RAW264.7 [8] was 85%. Further, the inhibition at 24 h, 10 µM in series [11] was determined as 28%; in [13], 9%.

For the compound `CC(C)=CCc1c(O)ccc(-c2coc3c(CC=C(C)C)c(O)cc(O)c3c2=O)c1O`, the inhibition of growth at 10 µM with HepG2 [1] amounted to 80%; in the series on MCF7 [2], 88%; with SW480 [4] it was 98%. The IC50 with MCF7 [3] was 7.47 µM; with HepG2 [6], 5.66 µM; in the series with SW480 [9], 4.62 µM; in series [10], 0.5 µM. For the same compound, the inhibition was determined as 19% in the series listed under Homo sapiens [5], 96% in series [7] and 7% in series [12]. Besides, the inhibition at 10 µM in the series on RAW264.7 [8] came to 11%. Moreover, the inhibition at 24 h, 10 µM was determined as 10% in series [11] and 20% in series [13]. The Activity result with HEK-293T and in the series on L02 was “Non-Toxic” each time.

Take `CC1(C)C=Cc2cc(-c3coc4cc(O)cc(O)c4c3=O)cc(O)c2O1`: the values for the inhibition of growth at 10 µM in the series on HepG2 [1], in the series on MCF7 [2] and in the series on SW480 [4] were 5%, 15% and 29%, respectively. On Mushroom tyrosinase, this compound registered an IC50 of 0.25 µM. For the same compound, the inhibition in the series filed under Homo sapiens [5] turned out to be 8%; in [7] it was 58%; in [12], 95%. Moreover, the inhibition at 10 µM in the series with RAW264.7 [8] amounted to 14%. The figures for the inhibition at 24 h, 10 µM in [11] and in series [13] were 0% and 7%, respectively.

For the compound `COc1cc(/C=C/C(=O)CC(=O)/C=C/c2ccc(O)c(OC)c2)ccc1O` [CURCUMIN], the inhibition at 20 µM with RAW264.7 [16] was found to be 70%.

As for `CC1(C)C=Cc2c(O)ccc(-c3coc4cc(O)cc(O)c4c3=O)c2O1`, the inhibition of growth at 10 µM stood at 22% in the series with HepG2 [1], 28% with MCF7 [2] and 15% in the series with SW480 [4]. For the same compound, the IC50 on Mushroom tyrosinase was found to be 0.8 µM. Further, the inhibition in the series listed under Homo sapiens [5] worked out at 12%; in series [7] it was 36%; in [12], 90%. The inhibition at 10 µM in the series with RAW264.7 [8] came out at 21%. The inhibition at 24 h, 10 µM in series [11] was found to be 1%; in series [13], 24%.

As for `CC1(C)C=Cc2c(ccc3c2OC[C@@H](c2ccc(O)cc2O)C3)O1` [GLABRIDIN], the inhibition of growth at 10 µM in the series on HepG2 [1] is 7%; in the series on MCF7 [2], 0%; in the series with SW480 [4], 32%. This compound also showed an IC50 on Mushroom tyrosinase of 0.1 µM. Further, the inhibition came out at 0% in the series listed under Homo sapiens [5], 38% in [7] and 98% in series [12]. Besides, in the series on RAW264.7 [8], the inhibition at 10 µM turned out to be 7%. The inhibition at 24 h, 10 µM is 2% in [11] and 3% in [13].

In the series listed under Homo sapiens [17], `CC(C)C[C@@H](C=O)NC(=O)[C@H](CC(C)C)NC(=O)[C@H](CC(C)C)NC(=O)OCc1ccccc1` (Cbz-Leu-Leu-Leu-aldehyde) came in with an inhibition of 70%.

As for `CC(C)=CCc1cc([C@@H]2CC(=O)c3c(O)cc(O)c(CC=C(C)C)c3O2)ccc1O` [LESPEDEZAFLAVANONE B], the inhibition of growth at 10 µM turned out to be 24% in the series on HepG2 [1], 86% in the series on MCF7 [2] and 81% in the series on SW480 [4]. The IC50 was found to be 13.1 µM in the series with MCF7 [3] and 12.5 µM in the series with SW480 [9]. Also, the inhibition stood at 34% in the series filed under Homo sapiens [5], 46% in [7] and 5% in [12]. Moreover, the inhibition at 10 µM in the series on RAW264.7 [8] was determined as 14%. Moreover, the inhibition at 24 h, 10 µM in series [11] was determined as 6%; in series [13], 12%. The Activity result in the series on HEK-293T and in the series on L02 was “Non-Toxic” throughout.

Take `C=C(C)[C@H](C)c1cc(/C=C/C(=O)c2ccc(O)cc2)c(OC)cc1O` [LICOCHALCONE E]: the IC50 in the series with RAW264.7 [14] was determined as 9.09 µM; in series [15], 3.83 µM. Besides, the inhibition of growth at 10 µM in the series on HepG2 [1] is 23%; in the series with MCF7 [2], 42%; in the series with SW480 [4], 44%. The inhibition turned out to be 72% in the series filed under Homo sapiens [5], 21% in [7] and 8% in [12]. Moreover, in the series on RAW264.7 [8], the inhibition at 10 µM was 55%. The inhibition at 24 h, 10 µM was determined as 34% in [11] and 22% in [13].
